Results: patent US20160175318A1, “COMPOSITIONS COMPRISING ANTIBACTERIAL AGENT AND TAZOBACTAM” (WOCKHARDT LIMITED, priority 2013, published 2016)
Like-named read-outs stand apart in the source and are kept apart here.

Columns and labels:
Assay type in all cases: cell-based
[1] = tested on: E. coli M50; assay: MIC by agar dilution (CLSI) against highly resistant ESBL strain
Experimental: (§1) The results on activity of cefepime and other cephalosporin antibacterial agents in combination with tazobactam against highly resistant ESBL strains are given Table 1. In a typical study, overnight grown bacterial cultures were diluted appropriately and inoculated on the agar media containing doubling dilutions of the antibiotic. Observation for growth or no growth was performed after 16-20 h of incubation at 35±2° C. in ambient air. The overall procedure was performed as per Clinical and Laboratory Standards Institute (CLSI) recommendations. This experimental was followed for Examples 2-4 and 6 below (Table 2-4 and 7).

[2] = tested on: E. coli 7MP; assay: as above; settings: E. coli 7MP
Experimental: as §1

[3] = tested on: K. pneumoniae M150; assay: as above; settings: Klebsiella pneumoniae, M150, K. pneumoniae M150, read-out: MIC
Experimental: as §1

[4] = tested on: E. coli B-89; assay: as above; settings: E. coli B-89
Experimental: as §1

[5] = tested on: E. cloacae M-20; assay: as above; settings: E. cloacae M-20
Experimental: as §1

[6] = tested on: E. coli M50; assay: Quantitative drug diffusion assay (disc, zone of inhibition, CLSI); set-up: key to Interpretation of zone as per CLSI recommendations: R: Resistant; I: Intermediate; S: Sensitive (Interpretation as per CLSI recommendations, 2010)
Excerpt: (§2) Activity of cefepime in combination with tazobactam and various penicillins in combination with respective ESBL inhibitors was also investigated against highly resistant ESBL strains in quantitative drug diffusion assay performed as per CLSI recommendations (Clinical and Laboratory Standards Institute (CLSI), performance Standards for Antimicrobial Susceptibility Testing, 20th Informational Supplement, M 100-S20, Volume 30, No. 1, 2010).
(§3) In a typical study, overnight grown bacterial cultures after appropriate dilution were seed inoculated in the molten, cooled agar media and plates poured. Antibiotics containing 6 mm diameter discs were place on the top of the agar surface. Zone of inhibition based observation was performed after 16-18 h of incubation at 35±2° C. in ambient air. The overall procedure was performed as per CLSI recommendations (Table 5 and 6). These assays are routinely used in determining possibility of treating a particular infection using antibiotic and/or their combinations. For example, in case of treating an infection caused by E. coli (M138) using Augmentin® [commercially available combination: Amoxicillin (500 mg)+Clavulanic acid (125 mg)], the zone inhibition values need to be in the sensitive (S) range.

[7] = tested on: E. coli 7MP; assay: as above; set-up: key to Interpretation of zone as per CLSI recommendations: R: Resistant; I: Intermediate; S: Sensitive (Interpretation as per CLSI recommendations, 2010)
Excerpt: as §2, §3

[8] = tested on: E. coli S-112; assay: as above; set-up: key to Interpretation of zone as per CLSI recommendations: R: Resistant; I: Intermediate; S: Sensitive (Interpretation as per CLSI recommendations, 2010)
Excerpt: as §2, §3

[9] = tested on: E. coli B-89; assay: as above; set-up: key to Interpretation of zone as per CLSI recommendations: R: Resistant; I: Intermediate; S: Sensitive (Interpretation as per CLSI recommendations, 2010)
Excerpt: as §2, §3

[10] = tested on: E. coli B-123; assay: as above; set-up: key to Interpretation of zone as per CLSI recommendations: R: Resistant; I: Intermediate; S: Sensitive (Interpretation as per CLSI recommendations, 2010)
Excerpt: as §2, §3

[11] = tested on: E. coli M-138; assay: as above; set-up: key to Interpretation of zone as per CLSI recommendations: R: Resistant; I: Intermediate; S: Sensitive (Interpretation as per CLSI recommendations, 2010)
Excerpt: as §2, §3

[12] = tested on: E. coli B123; assay: MIC by agar dilution (CLSI) against highly resistant ESBL strain; settings: for Activity (MIC, method of Example 1), Table 7: E. coli B-123; for MIC: Escherichia coli, B123, E. coli B123, read-out: MIC
Experimental: as §1

[13] = Escherichia coli, 20 h, Tazobactam 0 mcg (antibiotic alone), read-out: MIC
[14] = Escherichia coli, 7MP, 20 h, Tazobactam 0 mcg (antibiotic alone), read-out: MIC
[15] = Tazobactam 0 mcg (antibiotic alone)
[16] = Escherichia coli, B89, 20 h, Tazobactam 0 mcg (antibiotic alone), read-out: MIC
[17] = Enterobacter cloacae, M20, 20 h, Tazobactam 0 mcg (antibiotic alone), read-out: MIC
[18] = ESBL inhibitor 0 mcg (antibiotic alone)
[19] = Table 6, with Tazobactam 10 mcg

SMILES: CC1(C)S[C@@H]2[C@H](NC(=O)[C@H](N)c3ccccc3)C(=O)N2[C@H]1C(=O)O [Ampicillin]
- MIC [1, 13]: > 128 mg/L
- MIC ([1]; with Tazobactam 4 mcg): >64 mg/L
- MIC ([1]; with Tazobactam 8 mcg): >64 mg/L
- MIC ([2]; with Tazobactam 4 mcg): >64 mg/L
- MIC ([2]; with Tazobactam 8 mcg): >64 mg/L
- MIC [2, 14]: > 128 mg/L
- MIC [3, 15]: > 128 mg/L
- MIC ([3]; with Tazobactam 4 mcg): > 64 mg/L
- MIC ([3]; with Tazobactam 8 mcg): > 64 mg/L
- MIC ([4]; with Tazobactam 4 mcg): >64 mg/L
- MIC ([4]; with Tazobactam 8 mcg): >64 mg/L
- MIC [4, 16]: > 128 mg/L
- MIC ([5]; with Tazobactam 4 mcg): >64 mg/L
- MIC ([5]; with Tazobactam 8 mcg): >64 mg/L
- MIC [5, 17]: > 128 mg/L
- Zone of Inhibition [6, 18]: Nil
- Interpretation of zone as per CLSI recommendations ([6]; Table 5, ESBL inhibitor 0 mcg): (R)
- Interpretation of zone as per CLSI recommendations ([6]; Table 5, with Sulbactam 10 mcg): (R)
- Interpretation of zone as per CLSI recommendations ([6]; Table 6, ESBL inhibitor 0 mcg): (R)
- Interpretation of zone as per CLSI recommendations ([6]; Table 6, with Sulbactam 10 mcg): (R)
- Zone of Inhibition ([6]; with Sulbactam 10 mcg): Nil
- Zone of Inhibition [7, 18]: Nil
- Interpretation of zone as per CLSI recommendations ([7]; Table 5, ESBL inhibitor 0 mcg): (R)
- Interpretation of zone as per CLSI recommendations ([7]; Table 5, with Sulbactam 10 mcg): (R)
- Interpretation of zone as per CLSI recommendations ([7]; Table 6, ESBL inhibitor 0 mcg): (R)
- Interpretation of zone as per CLSI recommendations ([7]; Table 6, with Sulbactam 10 mcg): (R)
- Zone of Inhibition ([7]; with Sulbactam 10 mcg): Nil
- Zone of Inhibition [8, 18]: Nil
- Interpretation of zone as per CLSI recommendations ([8]; Table 5, ESBL inhibitor 0 mcg): (R)
- Interpretation of zone as per CLSI recommendations ([8]; Table 5, with Sulbactam 10 mcg): (R)
- Interpretation of zone as per CLSI recommendations ([8]; Table 6, ESBL inhibitor 0 mcg): (R)
- Interpretation of zone as per CLSI recommendations ([8]; Table 6, with Sulbactam 10 mcg): (R)
- Zone of Inhibition ([8]; with Sulbactam 10 mcg): Nil
- Zone of Inhibition [9, 18]: Nil
- Interpretation of zone as per CLSI recommendations ([9]; Table 5, ESBL inhibitor 0 mcg): (R)
- Interpretation of zone as per CLSI recommendations ([9]; Table 5, with Sulbactam 10 mcg): (R)
- Interpretation of zone as per CLSI recommendations ([9]; Table 6, ESBL inhibitor 0 mcg): (R)
- Interpretation of zone as per CLSI recommendations ([9]; Table 6, with Sulbactam 10 mcg): (R)
- Zone of Inhibition ([9]; with Sulbactam 10 mcg): Nil
- Zone of Inhibition [10, 18]: Nil
- Interpretation of zone as per CLSI recommendations ([10]; Table 5, ESBL inhibitor 0 mcg): (R)
- Interpretation of zone as per CLSI recommendations ([10]; Table 5, with Sulbactam 10 mcg): (R)
- Interpretation of zone as per CLSI recommendations ([10]; Table 6, ESBL inhibitor 0 mcg): (R)
- Interpretation of zone as per CLSI recommendations ([10]; Table 6, with Sulbactam 10 mcg): (R)
- Zone of Inhibition ([10]; with Sulbactam 10 mcg): Nil
- Zone of Inhibition [11, 18]: Nil
- Interpretation of zone as per CLSI recommendations ([11]; Table 5, ESBL inhibitor 0 mcg): (R)
- Interpretation of zone as per CLSI recommendations ([11]; Table 5, with Sulbactam 10 mcg): (R)
- Interpretation of zone as per CLSI recommendations ([11]; Table 6, ESBL inhibitor 0 mcg): (R)
- Interpretation of zone as per CLSI recommendations ([11]; Table 6, with Sulbactam 10 mcg): (R)
- Zone of Inhibition ([11]; with Sulbactam 10 mcg): Nil

SMILES: CO/N=C(\C(=O)N[C@@H]1C(=O)N2C(C(=O)[O-])=C(C[n+]3cccc4c3CCC4)CS[C@H]12)c1csc(N)n1 [Cefpirome]
- MIC [1, 13]: > 64 mg/L
- MIC ([1]; with Tazobactam 4 mcg): 2 mg/L
- MIC ([1]; with Tazobactam 8 mcg): 2 mg/L
- Activity (MIC, method of Example 1), Table 7 ([2]; antibiotic alone): > 64 mg/L
- Activity (MIC, method of Example 1), Table 7 ([2]; with Clavulanic acid 4 mcg): 16 mg/L
- Activity (MIC, method of Example 1), Table 7 ([2]; with Clavulanic acid 8 mcg): 8 mg/L
- Activity (MIC, method of Example 1), Table 7 ([2]; with Sulbactam 4 mcg): 16 mg/L
- Activity (MIC, method of Example 1), Table 7 ([2]; with Sulbactam 8 mcg): 16 mg/L
- Activity (MIC, method of Example 1), Table 7 ([2]; with Tazobactam 4 mcg): 8 mg/L
- MIC ([2]; with Tazobactam 4 mcg): 8 mg/L
- MIC ([2]; with Tazobactam 8 mcg): 4 mg/L
- Activity (MIC, method of Example 1), Table 7 ([2]; with Tazobactam, (4 mcg)): 4 mg/L
- MIC [2, 14]: > 64 mg/L
- MIC ([4]; with Tazobactam 4 mcg): 4 mg/L
- MIC ([4]; with Tazobactam 8 mcg): 2 mg/L
- MIC [4, 16]: > 64 mg/L
- Activity (MIC, method of Example 1), Table 7 ([12]; antibiotic alone): > 64 mg/L
- Activity (MIC, method of Example 1), Table 7 ([12]; with Clavulanic acid 4 mcg): 16 mg/L
- Activity (MIC, method of Example 1), Table 7 ([12]; with Clavulanic acid 8 mcg): 8 mg/L
- Activity (MIC, method of Example 1), Table 7 ([12]; with Sulbactam 4 mcg): 8 mg/L
- Activity (MIC, method of Example 1), Table 7 ([12]; with Sulbactam 8 mcg): 16 mg/L
- Activity (MIC, method of Example 1), Table 7 ([12]; with Tazobactam 4 mcg): 4 mg/L
- Activity (MIC, method of Example 1), Table 7 ([12]; with Tazobactam, (4 mcg)): 2 mg/L
- MIC [12, 15]: > 64 mg/L
- MIC ([12]; with Tazobactam 4 mcg): 4 mg/L
- MIC ([12]; with Tazobactam 8 mcg): 2 mg/L
- Activity (MIC, method of Example 1), Table 7 ([5]; antibiotic alone): > 64 mg/L
- Activity (MIC, method of Example 1), Table 7 ([5]; with Clavulanic acid 4 mcg): 16 mg/L
- Activity (MIC, method of Example 1), Table 7 ([5]; with Clavulanic acid 8 mcg): 8 mg/L
- Activity (MIC, method of Example 1), Table 7 ([5]; with Sulbactam 4 mcg): 32 mg/L
- Activity (MIC, method of Example 1), Table 7 ([5]; with Sulbactam 8 mcg): 16 mg/L
- Activity (MIC, method of Example 1), Table 7 ([5]; with Tazobactam 4 mcg): 8 mg/L
- MIC ([5]; with Tazobactam 4 mcg): 8 mg/L
- MIC ([5]; with Tazobactam 8 mcg): 4 mg/L
- Activity (MIC, method of Example 1), Table 7 ([5]; with Tazobactam, (4 mcg)): 4 mg/L
- MIC [5, 17]: > 64 mg/L
- Zone of Inhibition [6, 18]: Nil
- Interpretation of zone as per CLSI recommendations ([6]; Table 6, ESBL inhibitor 0 mcg): (R)
- Interpretation of zone as per CLSI recommendations [6, 19]: (S)
- Zone of Inhibition ([6]; with Tazobactam 10 mcg): 22 mm
- Zone of Inhibition [7, 18]: 11 mm
- Interpretation of zone as per CLSI recommendations ([7]; Table 6, ESBL inhibitor 0 mcg): (R)
- Interpretation of zone as per CLSI recommendations [7, 19]: (S)
- Zone of Inhibition ([7]; with Tazobactam 10 mcg): 18.5 mm
- Zone of Inhibition [8, 18]: 15 mm
- Interpretation of zone as per CLSI recommendations ([8]; Table 6, ESBL inhibitor 0 mcg): (I)
- Interpretation of zone as per CLSI recommendations [8, 19]: (S)
- Zone of Inhibition ([8]; with Tazobactam 10 mcg): 20 mm
- Zone of Inhibition [9, 18]: Nil
- Interpretation of zone as per CLSI recommendations ([9]; Table 6, ESBL inhibitor 0 mcg): (R)
- Interpretation of zone as per CLSI recommendations [9, 19]: (S)
- Zone of Inhibition ([9]; with Tazobactam 10 mcg): 17.5 mm
- Zone of Inhibition [10, 18]: 8 mm
- Interpretation of zone as per CLSI recommendations ([10]; Table 6, ESBL inhibitor 0 mcg): (R)
- Interpretation of zone as per CLSI recommendations [10, 19]: (S)
- Zone of Inhibition ([10]; with Tazobactam 10 mcg): 20 mm
- Zone of Inhibition [11, 18]: Nil
- Interpretation of zone as per CLSI recommendations ([11]; Table 6, ESBL inhibitor 0 mcg): (R)
- Interpretation of zone as per CLSI recommendations [11, 19]: (S)
- Zone of Inhibition ([11]; with Tazobactam 10 mcg): 21 mm
